Source: ChEMBL document CHEMBL1201862, “PubChem BioAssay data set” (2004)
Activity calls are given as the source filed them.

Columns and labels:
[1] = test system: Vero; experiment: cells; format: functional; conditions: Chlorocebus sabaeus
[2] = test system: Escherichia coli; experiment: microbe, parasite or virus in culture
[3] = molecular target: T1, Heat shock factor protein 1 (Mus musculus, UniProt P38532); experiment: HSF1 potentiators in luciferase reporter cells, confirmation, cell-based, NIH3T3, luminescence, dose retest (AID 435004); format: functional;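 note: stress induced by proteasome inhibitor MG132 added 30 min after compound; luciferase reporter driven by HSF1 response element in NIH3T3 cells; actives raise luminescence as potentiators of the MG132 stress response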
T1 sequence (P38532 whole entry): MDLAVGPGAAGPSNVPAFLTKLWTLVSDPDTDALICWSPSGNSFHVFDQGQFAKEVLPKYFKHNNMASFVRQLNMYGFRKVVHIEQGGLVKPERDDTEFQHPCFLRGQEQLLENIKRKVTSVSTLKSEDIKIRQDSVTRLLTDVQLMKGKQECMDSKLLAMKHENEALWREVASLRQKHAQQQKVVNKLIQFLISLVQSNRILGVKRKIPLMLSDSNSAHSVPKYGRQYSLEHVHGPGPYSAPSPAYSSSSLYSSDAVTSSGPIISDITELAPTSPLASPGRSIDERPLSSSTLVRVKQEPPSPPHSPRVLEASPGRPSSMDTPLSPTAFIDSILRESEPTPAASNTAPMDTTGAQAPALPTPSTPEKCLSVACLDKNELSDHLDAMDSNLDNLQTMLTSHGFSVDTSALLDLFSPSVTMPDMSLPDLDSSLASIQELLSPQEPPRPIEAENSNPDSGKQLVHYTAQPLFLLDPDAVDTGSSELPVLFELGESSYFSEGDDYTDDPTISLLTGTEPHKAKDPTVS

[4] = molecular target: Delta-type opioid receptor (Homo sapiens, UniProt P41143); experiment: Counterscreen for agonists of heterodimerization of the mu 1 (OPRM1) and delta 1 (OPRD1) opioid receptors: Luminescence-based cell-based high throughput dose response assay to identify agonists of OPRD1 homodimerization. [Related pubchem assays (depositor defined):AID504326, AID504355, AID504692, AID504904, AID504905]; format: functional
[5] = molecular target: Mu-type opioid receptor (Homo sapiens, UniProt P35372); experiment: Counterscreen for agonists of heterodimerization of the mu 1 (OPRM1) and delta 1 (OPRD1) opioid receptors: Luminescence-based cell-based high throughput dose response assay to identify agonists of OPRM1 homodimerization.; format: functional;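 note: U2OS cells expressing OPRM1 and beta-arrestin as split beta-galactosidase partners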
[6] = molecular target: 5-hydroxytryptamine receptor 5A (Homo sapiens, UniProt P47898); experiment: Counterscreen for agonists of OPRM1-OPRD1 heterodimerization: luminescence-based cell-based high throughput dose response assay to identify agonists of 5-hydroxytryptamine (serotonin) 5A receptor (HTR5A). [Related pubchem assays (depositor defined):AID504326, AID504355, AID504692, AID504904, AID504905]; format: functional
[7] = cytotoxicity in MIN6 insulinoma cells, dose response, cytotoxicity control, cell-based, mouse insulinoma (AID 2122); format: functional;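 note: confirmatory high-throughput counterscreen run to flag cytotoxic compounds; mouse MIN-6 beta cells carrying an insulin promoter eGFP reporter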
[8] = HepG2 cell cytotoxicity, dose response, cytotoxicity control for Shn3 inhibitor project, CellTiter-Glo, cherry-picked (AID 624134); format: functional, cell-based
[9] = test system: INS1; experiment: beta cell apoptosis inhibitors, cytokine rescue, dose response, luminescence, retest (AID 449756); format: functional, cell-based; conditions: Rattus norvegicus;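 note: cell death triggered by IL-1 beta plus TNF-alpha plus IFN-gamma mixture; protective hits raise ATP signal compared with cytokine alone wells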
[10] = cells; format: functional, cell-based
[11] = cells; format: functional, cell-based; remark: listed apart in the source
[12] = control 3'UTR Renilla luciferase suppression, dose response, counter-screen for Shn3 inhibitor project, cell-based, Clone20-Shn3RL, cherry-picked (AID 624133); format: functional
[13] = insulin promoter down-regulators in MIN6 cells, imaging, high-content screening, mouse beta cells (AID 1628); format: functional
[14] = Shn3 3'UTR reporter inhibitors, dose response, cell-based, Clone20 osteoblasts, firefly luciferase, cherry-picked (AID 624132); format: functional;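 note: firefly luciferase luminescence from reporter carrying the Shn3 3'UTR in osteoblasts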

5-hydroxytryptamine receptor 5A, sequence (P47898 whole entry): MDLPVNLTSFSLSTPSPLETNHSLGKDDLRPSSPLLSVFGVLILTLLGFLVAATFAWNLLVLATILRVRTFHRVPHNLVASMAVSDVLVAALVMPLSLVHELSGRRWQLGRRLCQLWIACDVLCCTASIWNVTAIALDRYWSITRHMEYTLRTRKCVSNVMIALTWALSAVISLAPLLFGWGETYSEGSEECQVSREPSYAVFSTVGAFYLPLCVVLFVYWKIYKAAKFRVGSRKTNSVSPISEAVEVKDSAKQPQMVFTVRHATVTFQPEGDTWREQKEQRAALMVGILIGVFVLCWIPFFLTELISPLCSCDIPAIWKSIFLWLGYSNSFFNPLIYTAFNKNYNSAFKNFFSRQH
Mu-type opioid receptor, sequence (P35372 whole entry): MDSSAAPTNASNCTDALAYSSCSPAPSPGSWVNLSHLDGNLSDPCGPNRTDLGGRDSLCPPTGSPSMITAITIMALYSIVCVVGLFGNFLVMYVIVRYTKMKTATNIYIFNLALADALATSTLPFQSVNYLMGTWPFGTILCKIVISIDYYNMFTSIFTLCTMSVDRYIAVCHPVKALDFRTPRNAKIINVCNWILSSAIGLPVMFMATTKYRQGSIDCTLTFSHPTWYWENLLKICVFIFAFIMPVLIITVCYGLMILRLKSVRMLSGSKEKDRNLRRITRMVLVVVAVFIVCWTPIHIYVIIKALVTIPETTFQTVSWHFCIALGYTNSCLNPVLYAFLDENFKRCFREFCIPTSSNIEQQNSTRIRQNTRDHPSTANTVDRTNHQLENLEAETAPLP
Delta-type opioid receptor, sequence (P41143 whole entry): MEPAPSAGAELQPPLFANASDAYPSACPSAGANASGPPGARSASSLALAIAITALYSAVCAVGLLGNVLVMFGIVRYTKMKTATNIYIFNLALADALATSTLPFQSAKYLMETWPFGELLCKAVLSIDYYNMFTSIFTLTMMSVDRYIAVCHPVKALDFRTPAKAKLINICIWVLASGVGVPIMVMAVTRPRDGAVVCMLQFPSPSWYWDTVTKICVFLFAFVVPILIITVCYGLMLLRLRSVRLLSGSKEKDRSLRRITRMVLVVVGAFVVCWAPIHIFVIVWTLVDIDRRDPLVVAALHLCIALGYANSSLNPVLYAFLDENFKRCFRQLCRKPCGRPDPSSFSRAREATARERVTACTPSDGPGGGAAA

With `O=C1N(c2ccccc2C(F)(F)F)OC1(Cc1ccccc1)c1ccccc1` (stereo not drawn) as the molecule, how does the CC50 [1] read?
Its CC50 is > 25 µM (active).

Which AC50 [2] does the source give for `COC(=O)c1c(NC(=O)CCN2CCOCC2)sc2c1CCCC2` here?
The AC50 was 85.8 µM (active).

With `COc1ccc(-c2nnc(Nc3ccc(CC(N)=O)cc3)c3ccccc23)cc1` as the molecule, how does the AC50 [2] read?
The AC50 was 23.2 µM (active).

And the EC50 [3]?
The EC50 was > 260 µM (inactive).

For `CN(C)C(CNC(=O)CSC(=S)N1CCCC1)c1ccccc1` (stereo not drawn), which EC50 [4] is on record?
Its EC50 is > 92.5 µM (inactive).

And the EC50 [5]?
Its EC50 is 17.1 µM (inactive).

What about the EC50 [6] of the same molecule?
Its EC50 is > 92.5 µM (inactive).

Which EC50 [4] does the source give for `COc1ccccc1NC(=O)c1sc2nc(C)cc(C)c2c1N` here?
The EC50 was > 92.5 µM (inactive).

And the EC50 [5]?
Its EC50 is > 92.5 µM (inactive).

And the EC50 [6]?
Its EC50 is > 92.5 µM (inactive).

With `Cc1ccc(Nc2c(-c3ccccn3)nc3ccc(C)cn23)cc1` as the molecule, how does the IC50 [7] read?
The IC50 was 0.539 µM (active).

What about the AC50 [8] of the same molecule?
Its AC50 is 5.21 µM (active).

What about the AC50 [9] of the same molecule?
Its AC50 is 3 µM (active).

And the EC50 [10]?
Its EC50 is 79.5 µM (active).

And the EC50 [11]?
The EC50 was 38.3 µM (active).

And the AC50 [12]?
Its AC50 is 3.02 µM (active).

And the IC50 [13]?
Its IC50 is 1.95 µM (active).

What about the AC50 [14] of the same molecule?
The AC50 was 1.74 µM (active).
